In brackets after ≈: the same amount, converted by molar mass. Like-named read-outs stand apart in the source and are kept apart here.
Experiments:
Type in all cases: cell-based
Acinobacter = experiment: Antibacterial in vitro activity (MIC), Acinobacter
Description: (§1) Comparison between the antibacterial in vitro
(§2) activity (MIC, μg/ml) of compounds (1)
(§3) and (31) and a reference drug: Moxalactam

[1] = system: Pseudomonas aeruginosa (6 strains); experiment: Antibacterial in vitro activity (MIC), Pseudomonas aeruginosa (6 strains)
Description: as §1, §2, §3

[2] = system: Staphylococcus aureus 209 P; experiment: Antibacterial in vitro activity (MIC), Staphylococcus aureus 209 P
Description: as §1, §2, §3

[3] = system: Staphylococcus aureus Smith ATCC 13709; experiment: Antibacterial in vitro activity (MIC), Staphylococcus aureus Smith ATCC 13709; conditions: ATCC13709
Description: as §1, §2, §3

[4] = system: Escherichia coli B Cef. R (β-lact.+); experiment: Antibacterial in vitro activity (MIC), Escherichia coli B Cef. R (β-lact.+)
Description: as §1, §2, §3

[5] = system: Escherichia coli 026/B6 Cef R; experiment: Antibacterial in vitro activity (MIC), Escherichia coli 026/B6 Cef R; conditions: 026/B6CEFR
Description: as §1, §2, §3

[6] = system: Shigella flexneri ATCC 11836; experiment: Antibacterial in vitro activity (MIC), Shigella flexneri ATCC 11836; conditions: ATCC11836
Description: as §1, §2, §3

[7] = system: Citrobacter freundii ATCC 8090; experiment: Antibacterial in vitro activity (MIC), Citrobacter freundii ATCC 8090; conditions: ATCC8090
Description: as §1, §2, §3

[8] = system: Streptococcus pyrogenes ATCC 12384; experiment: Antibacterial in vitro activity (MIC), Streptococcus pyrogenes ATCC 12384; conditions: ATCC12384
Description: as §1, §2, §3

[9] = system: Enterobacter cloacae P 99 (β-lact.+); experiment: Antibacterial in vitro activity (MIC), Enterobacter cloacae P 99 (β-lact.+)
Description: as §1, §2, §3

[10] = system: Klebsiella aerogenes 1082E (β-lact.+); experiment: Antibacterial in vitro activity (MIC), Klebsiella aerogenes 1082E (β-lact.+)
Description: as §1, §2, §3

[11] = Escherichia coli B Cef. R (β-lact.+), read-out: MIC
[12] = Enterobacter cloacae P 99 (β-lact.+), read-out: MIC
[13] = Klebsiella aerogenes 1082E (β-lact.+), read-out: MIC

C[C@@H](O)[C@H]1C(=O)N2C(C(=O)[O-])=C(SCC[n+]3ccccc3)S[C@H]12 [Compound 1, (5R,6S)-6-[(1R)-hydroxyethyl]-2-(2-pyridinioethylthio) penem-3-carboxylate]
MIC (Acinobacter): 0.78 µg/mL (≈ 2.21 µM)
MIC [1]: 9.92 µg/mL (≈ 28.1 µM)
MIC [2]: 0.011 µg/mL (≈ 0.0312 µM)
MIC [3]: 0.222 µg/mL (≈ 0.63 µM)
MIC [4, 11]: 0.78 µg/mL (≈ 2.21 µM)
MIC [5]: 0.39 µg/mL (≈ 1.11 µM)
MIC [6]: 0.39 µg/mL (≈ 1.11 µM)
MIC ([7]; Citrobacter freundii ATCC 8090, read-out: MIC): 0.78 µg/mL (≈ 2.21 µM)
MIC [8]: ≤ 0.005 µg/mL
MIC [9, 12]: 0.78 µg/mL (≈ 2.21 µM)
MIC [10, 13]: 0.78 µg/mL (≈ 2.21 µM)

C[C@@H](O)[C@H]1C(=O)N2C(C(=O)[O-])=C(Oc3ccc(C[n+]4ccccc4)cc3)S[C@H]12 [Compound 31]
MIC [2]: 0.022 µg/mL (≈ 0.0552 µM)
MIC [3]: 0.045 µg/mL (≈ 0.113 µM)
MIC ([4]; Escherichia coli): 1.56 µg/mL (≈ 3.92 µM)
MIC [5]: 0.78 µg/mL (≈ 1.96 µM)
MIC [6]: 1.56 µg/mL (≈ 3.92 µM)
MIC ([7]; Citrobacter freundii): 1.56 µg/mL (≈ 3.92 µM)
MIC [8]: 0.011 µg/mL (≈ 0.0276 µM)
MIC ([9]; Enterobacter cloacae): 1.56 µg/mL (≈ 3.92 µM)
MIC ([10]; Klebsiella aerogenes): 1.56 µg/mL (≈ 3.92 µM)

CO[C@@]1(NC(=O)C(C(=O)O)c2ccc(O)cc2)C(=O)N2C(C(=O)O)=C(CSc3nnnn3C)CO[C@@H]21 (stereo partly shown) [Moxalactam, reference compound]
MIC [2]: 0.31 µg/mL (≈ 0.596 µM)
MIC [3]: 0.31 µg/mL (≈ 0.596 µM)
MIC [4, 11]: 2.5 µg/mL (≈ 4.8 µM)
MIC [5]: 2.5 µg/mL (≈ 4.8 µM)
MIC [6]: 0.15 µg/mL (≈ 0.288 µM)
MIC [8]: 2.5 µg/mL (≈ 4.8 µM)
MIC [9, 12]: 3.12 µg/mL (≈ 5.99 µM)
MIC [10, 13]: 0.78 µg/mL (≈ 1.5 µM)

From US4837215A, “Penem derivatives” (Farmitalia Carlo Erba, priority 1985, dated 1989)
